Assay results from patent US20210154162A1, “DRUG AND PHARMACEUTICAL COMPOSITION CONTAINING TRANSPORT PROTEIN INHIBITOR, AND USE” (Institute of Basic Medical Sciences Chinese Academy of …, priority 2018, published 2021).

Key:
PD-1 [1] = test: PD-1 expression in resting CD8+ T cells treated with Kyn (flow cytometry); assay type: cell-based, mouse
Description: (1) CD8^+ T cells were treated with Kyn (200 μM) for the time periods. The expression of PD-1 was determined by flow cytometry.

PD-1 [2] = test: ID8 ovarian cancer and H22 hepatocarcinoma ascites peritoneal tumor models; assay type: in vivo, mouse; settings: Kyn i.p., 6 days
Description: (10) C57BL/6 mice were intraperitoneally injected with 1×10^6 ID8 ovarian cancer cells. After 10 days, mice were intraperitoneally administered with PBS, Kyn, DMF or Kyn+DMF for 6 days. CD8^+ T cells from ascites were isolated and PD-1 expression was determined by flow cytometry (n=5).

PD-1 [3] = test: PD-1 expression in anti-CD3/CD28 bead-activated CD8+ T cells treated with Kyn or other tryptophan metabolites (flow cytometry); assay type: cell-based, mouse; settings: Kyn at different concentrations; 200 μM for different time periods; anti-CD3/CD28 microbeads
Description: (4) The isolated splenic CD8^+ T cells were incubated with anti-CD3/CD28 beads in the presence of different concentrations of Kyn. PD-1 expression was determined by flow cytometry.
(5) The experimental steps were the same as those of step (4), except that CD8^+ T cells were treated with 200 μM Kyn for different time periods as shown in FIG. 2E.
(6) Anti-CD3/CD28 bead-activated CTLs were treated with PBS, 200 μM Kyn or other metabolites (500 μM) from the tryptophan pathway (melatonin, kynurinic acid and indoxyle sulphate). After 24 h, PD-1 expression was determined by flow cytometry.

PD-1 [4] = test: OVA-B16 melanoma-bearing mice with adoptively transferred CFSE-labeled OT-1 T cells, PD-1 expression; assay type: in vivo, mouse; settings: Kyn 50 μg/mouse i.p. once every two days, three times; Day 7
Description: (6) C57BL/6 mice with 5×5 mm OVA-B16 melanoma were adoptively transferred with CFSE-labeled OT-1 CD8^+ T cells (4×10^6 cells/mouse, once every three days) on three occasions. At the same time, some mice were i.p. injected with Kyn (50 μg/mouse, once every two days) for three times. On Day 7 after transferring, CFSE^+CD8^+ T cells were isolated from tumor for flow cytometric analysis of PD-1 expression.
(8) The experimental steps were the same as those of step (7), except that C57BL/6 mice were treated with Kyn, DMF (5 μg/mouse, o.t., twice every day) or Kyn+DMF for 6 days. CFSE^+CD8^+ T cells from tumor were isolated for flow cytometric analysis of PD-1 expression.

PAT4 and SLC7A8 [5] = test: PAT4 and SLC7A8 expression in activated CD8+ T cells (real-time PCR, immunostaining); assay type: cell-based, mouse; settings: activated CD8+ T cells, Kyn 200 μM, 24 h
Description: (2) Activated CD8^+ T cells were treated with PBS or Kyn (200 μM) for 24 h. The expression of PAT4 and SLC7A8 was determined by real-time PCR (left) and immunostaining (right). Bar, […].
(6) The mRNA expression of PAT4 and SLC7A8 was determined in activated CD8^+ T cells treated with PBS, Kyn, Kyn/CH-223191 (10 μM) or Kyn/DMF (20 μM) for 48 h.

AhR = AhR localisation and expression in CD8+ T cells (confocal microscopy, western blot); assay type: cell-based, mouse; settings: 48 h
Description: (1) CD8^+ T cells isolated from spleen were stimulated with 200 μM Kyn or Kyn+anti-CD3/CD28 beads for 48 h. CD8^+ T cells were fixed, stained with an anti-AhR antibody and imaged by confocal microscopy. Bar, […]. (2) The experimental steps were the same as those of step (1), except that the cytoplasmic and nuclear protein fractions were seperated prior to the western blot analysis of AhR. The intensity relative to that in the resting/Kyn group was calculated. (3) Western blot analysis of AhR expression in both resting CD8^+ T cells and anti-CD3/CD28 bead-activated CD8^+ T cells treated with PBS or Kyn (200 μM) for 48 h was carried out. AhR ratio of Nuc/Cyt was calculated relative to that in the Kyn (−) group.

PAT4 and SLC7A8 [6] = test: Effect of Kyn on the expression of PAT4 and SLC7A8 in OT-1 CD8+ T cells (fluorescence quantitative PCR); assay type: cell-based; settings: activated mouse CD8+ T cells, 200 μM Kyn, 48 h
Description: Splenic CD8^+ T cells of OT-1 mice were obtained by magnetic bead sorting, and seeded into a 24-well plate (1 million cells/well) while anti-CD3/CD28 magnetic beads were added to activate T cells. The culture medium was RPMI-1640 added with 10 ng/mL mouse IL-2 and […] β-mercaptoethanol. Cells were grouped and treated with drugs as follows. Control group 1 (PBS): culture medium+PBS; Experimental group 2 (Kyn): culture medium+200 μM Kyn; RNA was collected from cells in each group after 48 h, and the expression of PAT4 and SLC7A8 was determined by fluorescence quantitative PCR.

CD8^+ T cells = test: Kyn i.p. injection in WT or AhR-/- C57BL/6 mice, analysis of CD8+ T cells; assay type: in vivo, mouse
Description: (1) WT C57BL/6 mice were i.p. injected with PBS or Kyn (50 μg, once per day) for 5 days, and CD8^+ T cells were sorted by FACS from the spleen and mesenteric lymph nodes. PD-1 expression was determined by flow cytometry (FIG. 6A). Some CD8^+ T cells from spleen were immunostained with AhR and DAPI (FIG. 6B), and the mRNA expression of PAT4 and SLC7A8 was determined by real-time PCR (FIG. 6C). […] Bar, […]. (2) The experimental steps were the same as those of step (1), except that AhR^−/− mice were used. (3) PD-1 expression in resting or anti-CD3/CD28 bead-activated splenic CD8^+ T cells was determined, wherein said cells were isolated from AhR^−/− C57BL/6 mice injected with PBS or Kyn for 5 days.

PD-1 [7] = test: Effect of SAR and BCH on PD-1 expression in human peripheral blood CD8+ T cells (flow cytometry); assay type: cell-based; settings: breast cancer patients, 200 μM Kyn, 48 h
Description: Mononuclear cells were isolated and obtained from the peripheral whole blood of breast cancer patients by using Ficoll. CD8^+ T cells were sorted by magnetic beads, and seeded into a U-shaped bottom 96-well plate (100000 cells/well) while anti-CD3/CD28 magnetic beads were added to activate T cells. The culture medium was RPMI-1640 added with 10 ng/mL human IL-2. Cells were grouped and treated with drugs as follows.
Control group 1 (PBS): culture medium+PBS;
Experimental group 2 (Kyn): culture medium+200 μM Kyn;
Experimental group 3 (Kyn+SAR): culture medium+200 μM Kyn+10 mM SAR; Experimental group 4 (Kyn+BCH): culture medium+200 μM Kyn+100 μM BCH;
The expression level of PD-1 in CD8^+ T cells of each group was determined by flow cytometry after 48 h.

## Nc1ccccc1C(=O)CC(N)C(=O)O (stereo not drawn) [Kyn, kynurenine]
PD-1 [1]; Kyn alone
  time point of initial increase of PD-1: 48 h
PD-1 [1]; Kyn alone 200 μM
  PD-1 expression: enough to upregulate PD-1
PD-1 [2]
  PD-1 expression in peritoneal, splenic or lymph node CD8+ T cells: promoted
  expression of IFN-γ and TNF-α: inhibited
PD-1 [3]
  PD-1 expression: markedly upregulated
PD-1 [4]
  PD-1 expression in tumor-infiltrating CFSE+ T cells: much higher levels of PD-1 expression
PAT4 and SLC7A8 [5]
  expression of SLC7A8 and PAT4: strikingly resulted in the upregulation
AhR; activated T cells, 200 μM Kyn
  AhR localisation: translocation of cytoplasmic AhR to the nucleus
AhR; resting T cells, Kyn 200 μM, further increased in activated T cells
  AhR expression: upregulated
PAT4 and SLC7A8 [6]
  expression of PAT4 and SLC7A8: significantly upregulating
CD8^+ T cells; AhR-/- mice, Kyn for 5 days
  PD-1 expression: failed to induce
CD8^+ T cells; WT C57BL/6 mice, Kyn 50 μg i.p. once per day, 5 days
  PD-1 expression in CD8+ T cells of spleen and lymph nodes: upregulated PD-1 expression
CD8^+ T cells; WT C57BL/6 mice, Kyn 50 μg i.p., 5 days
  expression of Kyn transporters SLC7A8 and PAT4: upregulated
CD8^+ T cells; WT C57BL/6 mice, Kyn 50 μg i.p., 5 days, spleen
  AhR localisation in CD8+ T cells: translocated to the nucleus
PD-1 [7]
  PD-1 expression in peripheral blood CD8+ T cells: significant increased
